Laboratory results: patent US10023570B2 (Array BioPharma, Inc., priority 2015, dated 2018)
Structures can show the parent of a compound that is named as a salt.

target: human KDR protein in HEK-293 cells (Homo sapiens (Human), UniProt P35968); assay: KDR Cell Assay (phospho-KDR in HEK-293 cells expressing inducible KDR); format: cell-based; conditions: pKDR Cell HEK 10% FBS IC50, HEK-293 cells expressing inducible KDR, VEGF stimulated
In short: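 HEK-293 cells with inducible human KDR were treated with compound for 1 h in DMEM (0.25% DMSO final), then lysed. Phospho-KDR was quantified by Meso Scale immunoassay, expressed as percent of control, and IC50 taken where a 4-parameter logistic fit crossed 50 POC.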

Sequence of human KDR protein in HEK-293 cells (P35968 20-1356): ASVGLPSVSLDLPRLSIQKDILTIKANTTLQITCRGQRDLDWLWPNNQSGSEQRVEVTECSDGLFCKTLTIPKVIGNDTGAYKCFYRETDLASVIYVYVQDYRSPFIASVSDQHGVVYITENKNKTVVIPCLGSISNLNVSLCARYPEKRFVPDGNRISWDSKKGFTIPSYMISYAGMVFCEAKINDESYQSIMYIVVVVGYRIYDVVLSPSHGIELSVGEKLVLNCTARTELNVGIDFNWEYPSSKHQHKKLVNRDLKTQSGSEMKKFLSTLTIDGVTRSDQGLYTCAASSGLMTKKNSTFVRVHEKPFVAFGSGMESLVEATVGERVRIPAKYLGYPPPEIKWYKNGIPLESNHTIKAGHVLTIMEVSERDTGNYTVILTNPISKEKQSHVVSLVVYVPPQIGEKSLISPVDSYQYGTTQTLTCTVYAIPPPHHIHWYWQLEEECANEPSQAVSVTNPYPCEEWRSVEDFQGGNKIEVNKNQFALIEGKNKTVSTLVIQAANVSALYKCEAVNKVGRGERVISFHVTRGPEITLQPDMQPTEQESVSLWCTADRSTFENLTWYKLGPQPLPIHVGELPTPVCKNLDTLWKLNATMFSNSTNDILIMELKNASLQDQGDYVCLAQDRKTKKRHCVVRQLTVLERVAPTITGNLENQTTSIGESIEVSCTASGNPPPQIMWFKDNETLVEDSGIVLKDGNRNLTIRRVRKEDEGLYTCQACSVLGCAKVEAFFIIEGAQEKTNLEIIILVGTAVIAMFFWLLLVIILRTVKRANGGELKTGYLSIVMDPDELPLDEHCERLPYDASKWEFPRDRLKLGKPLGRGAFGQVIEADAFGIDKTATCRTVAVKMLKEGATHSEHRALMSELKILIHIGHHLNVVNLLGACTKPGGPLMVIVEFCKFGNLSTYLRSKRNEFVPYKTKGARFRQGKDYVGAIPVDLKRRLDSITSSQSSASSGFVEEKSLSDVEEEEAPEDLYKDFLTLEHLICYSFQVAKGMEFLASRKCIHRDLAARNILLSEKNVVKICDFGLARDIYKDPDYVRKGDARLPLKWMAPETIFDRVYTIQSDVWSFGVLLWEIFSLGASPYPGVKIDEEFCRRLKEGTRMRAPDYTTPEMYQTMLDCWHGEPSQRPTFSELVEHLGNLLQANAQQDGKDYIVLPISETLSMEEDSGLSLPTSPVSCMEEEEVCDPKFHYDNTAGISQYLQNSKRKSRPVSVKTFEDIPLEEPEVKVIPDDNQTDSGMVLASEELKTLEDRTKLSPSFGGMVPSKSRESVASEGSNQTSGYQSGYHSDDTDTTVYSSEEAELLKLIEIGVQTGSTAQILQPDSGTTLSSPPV

SMILES | IC50 [µM]
Cn1cc(-c2cc(-c3ccc(N4CCC5(CCCOC5)C4)nc3)c3c(C#N)cnn3c2)cn1 (stereo not drawn) [Example 529, 4-(6-(7-oxa-2-azaspiro[4.5]decan-2-yl)pyridin-3-yl)-6-(1-methyl-1H-pyrazol-4-yl)pyrazolo[1,5-a]pyridine-3-carbonitrile] | ≥ 5
Cn1cc(-c2cc(-c3ccc(N4CCC5(CC4)CN(C(=O)C4CCC4)C5)nc3)c3c(C#N)cnn3c2)cn1 [Example 493, 4-(6-(2-(cyclobutanecarbonyl)-2,7-diazaspiro[3.5]nonan-7-yl)pyridin-3-yl)-6-(1-methyl-1H-pyrazol-4-yl)pyrazolo[1,5-a]pyridine-3-carbonitrile] | 0.928
N#Cc1cnn2cc(-c3cnn(C4CNC4)c3)cc(-c3ccc(N4CCN(Cc5ccccc5)CC4)nc3)c12 [Example 595, 6-(1-(azetidin-3-yl)-1H-pyrazol-4-yl)-4-(6-(4-benzylpiperazin-1-yl)pyridin-3-yl)pyrazolo[1,5-a]pyridine-3-carbonitrile dihydrochloride] | 0.217
Cn1cc(-c2cc(-c3ccc(N4CCC5(CCCNC5)C4)nc3)c3c(C#N)cnn3c2)cn1 (stereo not drawn) [Example 546, 4-(6-(2,7-diazaspiro[4.5]decan-2-yl)pyridin-3-yl)-6-(1-methyl-1H-pyrazol-4-yl)pyrazolo[1,5-a]pyridine-3-carbonitrile dihydrochloride] | 0.811
CN1CCCC12CCCN(c1ccc(-c3cc(-c4cnn(C)c4)cn4ncc(C#N)c34)cn1)C2 (stereo not drawn) [Example 557, 4-(6-(1-methyl-1,7-diazaspiro[4.5]decan-7-yl)pyridin-3-yl)-6-(1-methyl-1H-pyrazol-4-yl)pyrazolo[1,5-a]pyridine-3-carbonitrile] | 0.802

Results, then the compound that gave them:

IC50 [µM] | SMILES
1.71 | COc1ccccc1N(C)C(=O)N1CCN(c2ccc(-c3cc(-c4cnn(C)c4)cn4ncc(C#N)c34)cn2)CC1 [Example 382, 4-(5-(3-cyano-6-(1-methyl-1H-pyrazol-4-yl)pyrazolo[1,5-a]pyridin-4-yl)pyridine-2-yl)-N-(2-methoxyphenyl)-N-methylpiperazine-1-carboxamide]
0.554 | CN(C)C(=O)N1CC2(CCN(c3ccc(-c4cc(-c5cnn(C)c5)cn5ncc(C#N)c45)cn3)CC2)C1 [Example 501, 7-(5-(3-cyano-6-(1-methyl-1H-pyrazol-4-yl)pyrazolo[1,5-a]pyridin-4-yl)pyridin-2-yl)-N,N-dimethyl-2,7-diazaspiro[3.5]nonane-2-carboxamide]

same assay, conditions: pKDR Cell HEK 10% FBS IC50, HEK-293 cells expressing inducible KDR, VEGF stimulated, 10% FBS

SMILES | IC50 [µM]
Cn1cc(-c2cc(-c3ccc(N4CCN(C(=O)N5CC6COCC6C5)CC4)nc3)c3c(C#N)cnn3c2)cn1 (stereo not drawn) [Example 123, 4-(6-(4-(hexahydro-1H-furo[3,4-c]pyrrole-5-carbonyl)piperazin-1-yl)pyridin-3-yl)-6-(1-methyl-1H-pyrazol-4-yl)pyrazolo[1,5-a]pyridine-3-carbonitrile] | 1.61
CN(C(=O)N1CCN(c2ccc(-c3cc(-c4cnn(C)c4)cn4ncc(C#N)c34)cn2)CC1)c1ccccc1 [Example 109, 4-(5-(3-cyano-6-(1-methyl-1H-pyrazol-4-yl)pyrazolo[1,5-a]pyridin-4-yl)pyridin-2-yl)-N-methyl-N-phenylpiperazine-1-carboxamide] | 0.36
Cn1cc(-c2cc(-c3ccc(N4CCN(S(=O)(=O)CC5CC5)CC4)nc3)c3c(C#N)cnn3c2)cn1 [Example 87, 4-(6-(4-((cyclopropylmethyl)sulfonyl)piperazin-1-yl)pyridin-3-yl)-6-(1-methyl-1H-pyrazol-4-yl)pyrazolo[1,5-a]pyridine-3-carbonitrile] | 0.0058
Cn1cc(-c2cc(-c3ccc(N4CCNC5(CC5)C4)nc3)c3c(C#N)cnn3c2)cn1 [Example 167, 4-(6-(4,7-diazaspiro[2.5]octan-7-yl)pyridin-3-yl)-6-(1-methyl-1H-pyrazol-4-yl)pyrazolo[1,5-a]pyridine-3-carbonitrile dihydrochloride] | 0.78
Cn1cc(-c2cc(-c3ccc(N4CCN(S(=O)(=O)N5CCCC5)CC4)nc3)c3c(C#N)cnn3c2)cn1 [Example 138, 6-(1-methyl-1H-pyrazol-4-yl)-4-(6-(4-(pyrrolidin-1-ylsulfonyl)piperazin-1-yl)pyridin-3-yl)pyrazolo[1,5-a]pyridine-3-carbonitrile] | 0.0161
Cn1cc(-c2cc(-c3ccc(N4CCN(C(=O)C5(c6ccccn6)CC5)CC4)nc3)c3c(C#N)cnn3c2)cn1 [Example 359, 6-(1-methyl-1H-pyrazol-4-yl)-4-(6-(4-(1-(pyridine-2-yl)cyclopropane-1-carbonyl)piperazin-1-yl)pyridin-3-yl)pyrazolo[1,5-a]pyridine-3-carbonitrile bis(2,2,2-trifluoroacetate)] | 0.91
Cn1cc(-c2cc(-c3ccc(N4CCN(S(C)(=O)=O)CC4)cc3)c3c(C#N)cnn3c2)cn1 [Example 297, 6-(1-methyl-1H-pyrazol-4-yl)-4-(4-(4-(methylsulfonyl)piperazin-1-yl)phenyl)pyrazolo[1,5-a]pyridine-3-carbonitrile] | 0.189
Cn1cc(-c2cc(-c3ccc(N4CCN(S(=O)(=O)CC(C)(C)C)CC4)nc3)c3c(C#N)cnn3c2)cn1 [Example 89] | 0.189
CO[C@H]1CCN(C(=O)N2CCN(c3ccc(-c4cc(-c5ccn(C)n5)cn5ncc(C#N)c45)cn3)CC2)C1 [Example 274, (S)-4-(6-(4-(3-methoxypyrrolidine-1-carbonyl)piperazin-1-yl)pyridin-3-yl)-6-(1-methyl-1H-pyrazol-3-yl)pyrazolo[1,5-a]pyridine-3-carbonitrile] | ≥ 5

The next lines start with the values.

IC50 [µM] | SMILES
1.67 | Cn1cc(-c2cc(-c3ccc(N4CCC5(CC4)CN(C(=O)c4ccccc4)C5)nc3)c3c(C#N)cnn3c2)cn1 [Example 217, 4-(6-(2-benzoyl-2,7-diazaspiro[3.5]nonan-7-yl)pyridin-3-yl)-6-(1-methyl-1H-pyrazol-4-yl)pyrazolo[1,5-a]pyridine-3-carbonitrile]
0.54 | Cn1cc(-c2cc(-c3ccc(N4CCN(C(=O)C5CCCC5)CC4)nc3)c3c(C#N)cnn3c2)cn1 [Example 21, 4-(6-(4-(cyclopentanecarbonyl)piperazin-1-yl)pyridin-3-yl)-6-(1-methyl-1H-pyrazol-4-yl)pyrazolo[1,5-a]pyridine-3-carbonitrile]
0.155 | Cn1cc(-c2cc(-c3ccc(N4CCN(CC(O)c5c(F)cccc5F)CC4)nc3)c3c(C#N)cnn3c2)cn1 (stereo not drawn) [Example 154, 4-(6-(4-(2-(2,6-difluorophenyl)-2-hydroxyethyl)piperazin-1-yl)pyridin-3-yl)-6-(1-methyl-1H-pyrazol-4-yl)pyrazolo[1,5-a]pyridine-3-carbonitrile]
1.14 | Cn1cc(-c2cc(-c3ccc(N4CCN(C(=O)N[C@H]5CCOC5)CC4)nc3)c3c(C#N)cnn3c2)cn1 [Example 105, (S)-4-(5-(3-cyano-6-(1-methyl-1H-pyrazol-4-yl)pyrazolo[1,5-a]pyridin-4-yl)pyridin-2-yl)-N-(tetrahydrofuran-3-yl)piperazine-1-carboxamide]
1.31 | COC[C@H]1CCCN1C(=O)N1CCN(c2ccc(-c3cc(-c4cnn(C)c4)cn4ncc(C#N)c34)cn2)CC1 [Example 110, (R)-4-(6-(4-(2-(methoxymethyl)pyrrolidine-1-carbonyl)piperazin-1-yl)pyridin-3-yl)-6-(1-methyl-1H-pyrazol-4-yl)pyrazolo[1,5-a]pyridine-3-carbonitrile]
